The source of these data is ChEMBL document CHEMBL5727596, “Tetrahydroisoquinoline derivatives useful as inhibitors of diacylglyceride O-acyltransferase 2” (2020).

In the experiment the target is T1, Diacylglycerol O-acyltransferase 2 (Homo sapiens, UniProt Q96PD7).
T1 sequence (Q96PD7 whole entry): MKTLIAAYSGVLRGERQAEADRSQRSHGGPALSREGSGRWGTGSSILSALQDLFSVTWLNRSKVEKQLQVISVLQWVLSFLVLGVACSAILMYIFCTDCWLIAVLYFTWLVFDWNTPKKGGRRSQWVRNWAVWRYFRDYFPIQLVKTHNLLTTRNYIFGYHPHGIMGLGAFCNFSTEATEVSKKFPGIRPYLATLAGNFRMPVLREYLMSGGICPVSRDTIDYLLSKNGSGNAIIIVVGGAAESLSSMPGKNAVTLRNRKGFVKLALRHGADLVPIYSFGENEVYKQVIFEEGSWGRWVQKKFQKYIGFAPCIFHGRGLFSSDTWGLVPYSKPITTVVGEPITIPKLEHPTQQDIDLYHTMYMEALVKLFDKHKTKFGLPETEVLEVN
Nature of the experiment: Enzymatic Activity Assay: DGAT2 activity was determined by measuring the amount of enzymatic product triolein (1,2,3-Tri(cis-9-octadecenoyl)glycerol) using the membrane prep mentioned above. The assay was carried out in deep well 384 plates in a final volume of 40 μL at room temperature. The assay mixture contained the following: assay buffer (100 mM Tris.Cl, pH 7.0, 20 mM MgCl2, 5% ethanol), 25 μM of diolein, 10 μM of oleoyl-CoA and 10 ng/μL of DGAT2 membrane.
For the compound `Cc1noc([C@@H]2C[C@H]2C(=O)NCc2ccc(-c3cncc(C(C)(C)O)c3)c3c2CN(C(=O)NC(C)(C)C)CC3)n1` (relative stereo), the IC50 was found to be 0.512 µM. The result for `CCCCC(CC)CNC(=O)N1CCc2c(-c3cccc(OC)c3)ccc(CNC(=O)[C@@H]3C[C@H]3c3ccccc3)c2C1` (relative stereo) reads 0.249 µM. `COC(=O)c1cccc(-c2ccc(CNC(=O)C3CC3c3ccccc3)c3c2CCN(Cc2ccncc2)C3)c1` (mixture of isomers): the 50% inhibitory concentration (IC50) was 2.41 µM. The result for `COc1cccc(-c2ccc(CNC(=O)[C@H]3C[C@@H]3c3nc(C)no3)c3c2CCN(C(=O)C(C)(C)O)C3)c1` (relative stereo) reads 0.723 µM; that for `CCCNC(=O)N1CCc2c(-c3cccc(OC)c3)ccc(CNC(=O)[C@@H]3C[C@H]3c3nc(C)no3)c2C1` (relative stereo), 0.0083 µM; that for `COC(=O)c1cccc(-c2ccc(CNC(=O)C3CC3c3ccccc3)c3c2CCN(C(=O)c2ccccn2)C3)c1` (mixture of isomers), 0.249 µM. As to `COc1cccc(-c2ccc(CNC(=O)[C@@H]3C[C@H]3c3ccccc3)c3c2CCN(C(=O)NC(C)C(C)C)C3)c1` (mixture of isomers), the IC50 was 0.0238 µM.

For `COc1cccc(-c2ccc(CNC(=O)[C@@H]3C[C@H]3c3ccccc3)c3c2CCN(C(=O)NC2CC2)C3)c1` (mixture of isomers), the 50% inhibitory concentration (IC50) was determined as 0.0226 µM. The result for `COC(=O)c1cccc(-c2ccc(CNC(=O)C3CC3c3ccccc3)c3c2CCN(Cc2cc(C)n(C4CC4)c2C)C3)c1` (mixture of isomers) reads 2.8 µM; that for `Cc1noc([C@H]2C[C@@H]2C(=O)NCc2ccc(-c3cccc(C(F)(F)F)c3)c3c2CN(C(=O)NC(C)(C)C)CC3)n1` (relative stereo), 0.0058 µM.

Usually IC50 stands for the point on the concentration scale where inhibition reaches its midpoint.
